# Assay results from article PMC2910749 (Chembiochem : a European journal of chemical biology, 2008).
# Target: T1, human cytosolic β-glucosidase (Homo sapiens, UniProt Q9H227)
# T1 sequence (Q9H227 1-469): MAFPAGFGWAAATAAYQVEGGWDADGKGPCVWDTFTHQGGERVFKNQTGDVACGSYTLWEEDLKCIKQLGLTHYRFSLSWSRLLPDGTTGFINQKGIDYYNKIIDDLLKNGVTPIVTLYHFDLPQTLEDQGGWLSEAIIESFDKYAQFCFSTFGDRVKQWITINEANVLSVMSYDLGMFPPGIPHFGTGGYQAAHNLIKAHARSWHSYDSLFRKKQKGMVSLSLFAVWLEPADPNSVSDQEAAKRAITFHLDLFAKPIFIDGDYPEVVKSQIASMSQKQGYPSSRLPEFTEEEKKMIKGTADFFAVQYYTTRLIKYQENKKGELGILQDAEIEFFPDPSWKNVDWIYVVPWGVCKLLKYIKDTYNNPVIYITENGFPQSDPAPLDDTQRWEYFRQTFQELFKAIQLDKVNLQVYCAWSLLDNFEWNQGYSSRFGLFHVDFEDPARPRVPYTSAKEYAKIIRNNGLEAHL
# Assay: Glycosidase specificity: cytosolic
# Format: biochemical
compound,measurement,value
"O=C(Nc1ccncc1)c1ccc(Oc2cc(Cl)cc(Cl)c2)o1 [compound 2, 5-(3,5-dichlorophenoxy)-N-(4-pyridinyl)-2-furamide]",inhibition of neutral β-glucosidase,virtually non-inhibitory
